Laboratory results as given in ChEMBL document CHEMBL5532655, “Discovery of (R)-4-(8-methoxy-2-methyl-1-(1-phenylethy)-1H-imidazo[4,5-c]quinnolin-7-yl)-3,5-dimethylisoxazole as a potent and selective BET inhibitor for treatment of acute myeloid leukemia (AML) guided by FEP calculation” (Eur J Med Chem, 2024).

Columns and labels:
MV4-11 [1] = test: Induction of apoptosis in human MV4-11 cells assessed as late apoptotic cells at 2.5 uM incubated for 24 hrs by annexin V-FITC/PI staining based flow cytometric analysis (reference value: 0.04 %); assay type: functional
MV4-11 [2] = test: Induction of apoptosis in human MV4-11 cells assessed as early apoptotic cells at 2.5 uM incubated for 24 hrs by annexin V-FITC/PI staining based flow cytometric analysis (reference value: 0%); assay type: functional
MV4-11 [3] = test: cells; details: Homo sapiens, MV4-11, 48 h
Description: Antiproliferative activity against human MV4-11 cells assessed as inhibition of cell growth incubated for 48 hrs by MTT assay

MV4-11 [4] = test: Induction of cell cycle arrest in human MV4-11 cells assessed as accumulation of cells at G0/G1 phase at 5 uM incubated for 24 hrs by propidium iodide staining flow cytometric analysis (reference value: 34.97 %); assay type: functional
MV4-11 [5] = test: Induction of cell cycle arrest in human MV4-11 cells assessed as accumulation of cells at G2/M phase at 2.5 uM incubated for 24 hrs by propidium iodide staining flow cytometric analysis (reference value: 51.43 %); assay type: functional
MOLM-13 = test: cells; details: Homo sapiens, MOLM-13, 48 h
Description: Antiproliferative activity against human MOLM-13 cells assessed as inhibition of cell growth incubated for 48 hrs by MTT assay

MV4-11 [6] = test: Induction of apoptosis in human MV4-11 cells assessed as early apoptotic cells at 1.25 uM incubated for 24 hrs by annexin V-FITC/PI staining based flow cytometric analysis (reference value: 0%); assay type: functional
MV4-11 [7] = test: Induction of cell cycle arrest in human MV4-11 cells assessed as accumulation of cells at S phase at 1.25 uM incubated for 24 hrs by propidium iodide staining flow cytometric analysis (reference value: 13.08 %); assay type: functional
MV4-11 [8] = test: Induction of apoptosis in human MV4-11 cells assessed as viable cells at 1.25 uM incubated for 24 hrs by annexin V-FITC/PI staining based flow cytometric analysis (reference value: 97%); assay type: functional
MV4-11 [9] = test: Induction of apoptosis in human MV4-11 cells assessed as late apoptotic cells at 10 uM incubated for 24 hrs by annexin V-FITC/PI staining based flow cytometric analysis (reference value: 0.04 %); assay type: functional
Homo sapiens [10] = species on record: Homo sapiens; details: time 30.0 min
MV4-11 [11] = test: Induction of cell cycle arrest in human MV4-11 cells assessed as accumulation of cells at G2/M phase at 0.625 uM incubated for 24 hrs by propidium iodide staining flow cytometric analysis (reference value: 51.43 %); assay type: functional
Jurkat = test: cells; details: Homo sapiens, 48 h
Description: Antiproliferative activity against human Jurkat cells assessed as inhibition of cell growth incubated for 48 hrs by MTT assay

MV4-11 [12] = test: Induction of apoptosis in human MV4-11 cells assessed as viable cells at 2.5 uM incubated for 24 hrs by annexin V-FITC/PI staining based flow cytometric analysis (reference value: 97%); assay type: functional
Homo sapiens [13] = species on record: Homo sapiens; details: time 30.0 min; remark: listed apart in the source
MV4-11 [14] = test: Induction of cell cycle arrest in human MV4-11 cells assessed as accumulation of cells at G2/M phase at 1.25 uM incubated for 24 hrs by propidium iodide staining flow cytometric analysis (reference value: 51.43 %); assay type: functional
MV4-11 [15] = test: Induction of apoptosis in human MV4-11 cells assessed as necrotic cells at 0.625 uM incubated for 24 hrs by annexin V-FITC/PI staining based flow cytometric analysis (reference value: 2.35 %); assay type: functional
MV4-11 [16] = test: Induction of cell cycle arrest in human MV4-11 cells assessed as accumulation of cells at G0/G1 phase at 2.5 uM incubated for 24 hrs by propidium iodide staining flow cytometric analysis (reference value: 34.97 %); assay type: functional
MV4-11 [17] = test: Induction of apoptosis in human MV4-11 cells assessed as early apoptotic cells at 10 uM incubated for 24 hrs by annexin V-FITC/PI staining based flow cytometric analysis (reference value: 0%); assay type: functional
MV4-11 [18] = test: Induction of apoptosis in human MV4-11 cells assessed as early apoptotic cells at 0.625 uM incubated for 24 hrs by annexin V-FITC/PI staining based flow cytometric analysis (reference value: 0%); assay type: functional
MV4-11 [19] = test: Induction of apoptosis in human MV4-11 cells assessed as necrotic cells at 10 uM incubated for 24 hrs by annexin V-FITC/PI staining based flow cytometric analysis (reference value: 2.35 %); assay type: functional
MV4-11 [20] = test: Induction of cell cycle arrest in human MV4-11 cells assessed as accumulation of cells at G0/G1 phase at 0.3125 uM incubated for 24 hrs by propidium iodide staining flow cytometric analysis (reference value: 34.97 %); assay type: functional
MV4-11 [21] = test: Induction of apoptosis in human MV4-11 cells assessed as viable cells at 5 uM incubated for 24 hrs by annexin V-FITC/PI staining based flow cytometric analysis (reference value: 97%); assay type: functional
MV4-11 [22] = test: Induction of apoptosis in human MV4-11 cells assessed as viable cells at 0.625 uM incubated for 24 hrs by annexin V-FITC/PI staining based flow cytometric analysis (reference value: 97%); assay type: functional
MV4-11 [23] = test: Induction of cell cycle arrest in human MV4-11 cells assessed as accumulation of cells at S phase at 5 uM incubated for 24 hrs by propidium iodide staining flow cytometric analysis (reference value: 13.08 %); assay type: functional
MV4-11 [24] = test: Antitumor activity against human MV4-11 cells xenografted in BALB/c mouse assessed as tumor growth inhibition relative to control; assay type: functional
MV4-11 [25] = test: Induction of cell cycle arrest in human MV4-11 cells assessed as accumulation of cells at G0/G1 phase at 1.25 uM incubated for 24 hrs by propidium iodide staining flow cytometric analysis (reference value: 34.97 %); assay type: functional
MV4-11 [26] = test: Induction of apoptosis in human MV4-11 cells assessed as necrotic cells at 1.25 uM incubated for 24 hrs by annexin V-FITC/PI staining based flow cytometric analysis (reference value: 2.35 %); assay type: functional
MV4-11 [27] = test: Induction of apoptosis in human MV4-11 cells assessed as viable cells at 10 uM incubated for 24 hrs by annexin V-FITC/PI staining based flow cytometric analysis (reference value: 97%); assay type: functional
MV4-11 [28] = test: Induction of apoptosis in human MV4-11 cells assessed as late apoptotic cells at 5 uM incubated for 24 hrs by annexin V-FITC/PI staining based flow cytometric analysis (reference value: 0.04 %); assay type: functional
MV4-11 [29] = test: Induction of cell cycle arrest in human MV4-11 cells assessed as accumulation of cells at S phase at 0.625 uM incubated for 24 hrs by propidium iodide staining flow cytometric analysis (reference value: 13.08 %); assay type: functional
MV4-11 [30] = test: Induction of apoptosis in human MV4-11 cells assessed as late apoptotic cells at 0.625 uM incubated for 24 hrs by annexin V-FITC/PI staining based flow cytometric analysis (reference value: 0.04 %); assay type: functional
MV4-11 [31] = test: Induction of apoptosis in human MV4-11 cells assessed as necrotic cells at 2.5 uM incubated for 24 hrs by annexin V-FITC/PI staining based flow cytometric analysis (reference value: 2.35 %); assay type: functional
MV4-11 [32] = test: Induction of cell cycle arrest in human MV4-11 cells assessed as accumulation of cells at G2/M phase at 5 uM incubated for 24 hrs by propidium iodide staining flow cytometric analysis (reference value: 51.43 %); assay type: functional
MV4-11 [33] = test: Induction of apoptosis in human MV4-11 cells assessed as necrotic cells at 5 uM incubated for 24 hrs by annexin V-FITC/PI staining based flow cytometric analysis (reference value: 2.35 %); assay type: functional
MV4-11 [34] = test: Induction of cell cycle arrest in human MV4-11 cells assessed as accumulation of cells at G0/G1 phase at 0.625 uM incubated for 24 hrs by propidium iodide staining flow cytometric analysis (reference value: 34.97 %); assay type: functional
MV4-11 [35] = test: Induction of cell cycle arrest in human MV4-11 cells assessed as accumulation of cells at G2/M phase at 0.3125 uM incubated for 24 hrs by propidium iodide staining flow cytometric analysis (reference value: 51.43 %); assay type: functional
MM1.S = test: cells; details: Homo sapiens, 48 h
Description: Antiproliferative activity against human MM1.S cells assessed as inhibition of cell growth incubated for 48 hrs by MTT assay

MV4-11 [36] = test: Induction of cell cycle arrest in human MV4-11 cells assessed as accumulation of cells at S phase at 0.3125 uM incubated for 24 hrs by propidium iodide staining flow cytometric analysis (reference value: 13.08 %); assay type: functional
MV4-11 [37] = test: Induction of cell cycle arrest in human MV4-11 cells assessed as accumulation of cells at S phase at 2.5 uM incubated for 24 hrs by propidium iodide staining flow cytometric analysis (reference value: 13.08 %); assay type: functional
MV4-11 [38] = test: Induction of apoptosis in human MV4-11 cells assessed as early apoptotic cells at 5 uM incubated for 24 hrs by annexin V-FITC/PI staining based flow cytometric analysis (reference value: 0%); assay type: functional
MV4-11 [39] = test: Induction of apoptosis in human MV4-11 cells assessed as late apoptotic cells at 1.25 uM incubated for 24 hrs by annexin V-FITC/PI staining based flow cytometric analysis (reference value: 0.04 %); assay type: functional
Homo sapiens [40] = species on record: Homo sapiens; details: time 30.0 min; remark: listed apart in the source

## Cc1sc2c(c1C)C(c1ccc(Cl)cc1)=N[C@@H](CC(=O)OC(C)(C)C)c1nnc(C)n1-2
MV4-11 [1]
  Activity: 4.03%
MV4-11 [2]
  Activity: 7.22%
MV4-11 [3]
  IC50: 1300 nM
MV4-11 [4]
  Activity: 64.98%
MV4-11 [5]
  Activity: 11%
MOLM-13
  IC50: 1730 nM
MV4-11 [6]
  Activity: 6.52%
MV4-11 [7]
  Activity: 19.09%
MV4-11 [8]
  Activity: 80.78%
MV4-11 [9]
  Activity: 5.04%
Homo sapiens [10]
  ΔTm: 0 °C
MV4-11 [11]
  Activity: 11.65%
Jurkat
  IC50: 16300 nM
MV4-11 [12]
  Activity: 88.78%
Homo sapiens [13]
  ΔTm: 0 °C
MV4-11 [14]
  Activity: 18.1%
MV4-11 [15]
  Activity: 0.03%
MV4-11 [16]
  Activity: 65.43%
MV4-11 [17]
  Activity: 8.62%
MV4-11 [18]
  Activity: 6.12%
MV4-11 [19]
  Activity: 0.06%
MV4-11 [20]
  Activity: 46.96%
MV4-11 [21]
  Activity: 68.49%
MV4-11 [22]
  Activity: 80.59%
MV4-11 [23]
  Activity: 22.85%
MV4-11 [24]
  TGI: 52.82%
MV4-11 [25]
  Activity: 62.73%
MV4-11 [26]
  Activity: 0.03%
MV4-11 [27]
  Activity: 67.33%
MV4-11 [28]
  Activity: 4.68%
MV4-11 [29]
  Activity: 40.75%
MV4-11 [30]
  Activity: 4.15%
MV4-11 [31]
  Activity: 0%
MV4-11 [32]
  Activity: 11.71%
MV4-11 [33]
  Activity: 0%
MV4-11 [34]
  Activity: 46.96%
MV4-11 [35]
  Activity: 11.65%
MM1.S
  IC50: 2840 nM
MV4-11 [36]
  Activity: 40.75%
MV4-11 [37]
  Activity: 23.24%
MV4-11 [38]
  Activity: 6.72%
MV4-11 [39]
  Activity: 3.38%
Homo sapiens [40]
  ΔTm: 0 °C
